ChEMBL document CHEMBL5120747, “Mononucleoside phosphorodithiolates as mononucleotide prodrugs” (Eur J Med Chem, 2022)
pEC50: −log10 of the molar value.

What was measured:
[1] = Prodrug conversion in human CEM-SS cell extract assessed as parent ddA formation at 0.00005 M measured at 50 to 150 hrs by HPLC analysis; assay type: ADME, cell-based; settings: 50 µM, time 50-150 hrs
[2] = Cytotoxicity against human MT4 cells assessed as reduction in cell viability; assay type: toxicity, cell-based
[3] = test system: Human immunodeficiency virus 1; test: Anti-HIV activity against HIV-1 infected in human CEM-SS cells assessed as inhibition of viral replication; assay type: functional, organism-based; settings: Human immunodeficiency virus 1, CEM-SS
[4] = test system: Human immunodeficiency virus 1; test: Anti-HIV activity against HIV-1 infected in human MT4 cells assessed as inhibition of viral replication; assay type: functional, organism-based; settings: Human immunodeficiency virus 1, MT4
[5] = Cytotoxicity against human MDM assessed as reduction in cell viability; assay type: toxicity, cell-based
[6] = test system: Human immunodeficiency virus 1; test: Anti-HIV activity against HIV-1 infected in human MDM assessed as inhibition of viral replication; assay type: functional, organism-based
[7] = test system: CEM-SS; test: Cytotoxicity against human CEM-SS cells assessed as reduction in cell viability; assay type: functional
[8] = Cytotoxicity against human PBMC assessed as reduction in cell viability; assay type: toxicity, cell-based
[9] = test system: Human immunodeficiency virus 1; test: Anti-HIV activity against HIV-1 infected in human PBMC assessed as inhibition of viral replication; assay type: functional, organism-based; settings: Human immunodeficiency virus 1, PBMC
[10] = test system: CEM-TK(-); test: Cytotoxicity against human CEM-TK(-) cells assessed as reduction in cell viability; assay type: functional
[11] = test system: Human immunodeficiency virus 1; test: Anti-HIV activity against HIV-1 infected in human CEM-TK(-) cells assessed as inhibition of viral replication; assay type: functional, organism-based; settings: Human immunodeficiency virus 1, CEM-TK(-)
[12] = Prodrug conversion in human CEM-SS cell extract assessed as ddAMP formation at 0.00005 M measured at 100 to 500 mins by HPLC analysis; assay type: ADME, cell-based; settings: 50 µM, time 100-500 min
[13] = Stability of compound in RPMI 1640 culture medium at pH 7.45 by HPLC analysis; assay type: physicochemical; settings: buffer
[14] = Stability of compound in phosphate buffer at pH 7.4 by HPLC analysis; assay type: physicochemical
[15] = Stability of compound in human CEM-SS cell extract at pH 7.45 assessed as compound half life by HPLC analysis; assay type: ADME, cell-based
[16] = Stability of compound in inactivated fetal calf serum with RPMI 1640 culture medium assessed as compound half life by HPLC analysis; assay type: ADME, cell-free, Bos taurus; settings: cattle
[17] = Stability of compound in phosphate buffer at pH 7.4 assessed as compound half life by HPLC analysis; assay type: physicochemical
[18] = Stability of compound in RPMI 1640 culture medium at pH 7.45 assessed as compound half life by HPLC analysis; assay type: physicochemical
[19] = Prodrug conversion in human CEM-SS cell extract assessed as O-((2S,5R)-5-(6-amino-9H-purin-9-yl)tetrahydrofuran-2-yl)methyl S-2-(pivaloylthio)ethyl phos-phorothioate sodium salt metabolite formation at 0.00005 M measured at 5 to 15 hrs by HPLC analysis; assay type: ADME, cell-based; settings: 50 µM, time 5-15 hrs
[20] = Prodrug conversion in human CEM-SS cell extract assessed as metabolite X formation at 0.00005 M measured at 100 to 500 mins by HPLC analysis; assay type: ADME, cell-based; settings: 50 µM, time 100-500 min
[21] = Prodrug conversion in inactivated fetal calf serum with RPMI 1640 culture medium assessed as S-(O-pivaloyl-2-oxyethyl)O-2',3'-dideoxyadenosin-5'-yl phos-phorothiolate diester sodium salt metabolite formation at 0.00005 M measured at 50 to 150 hrs by HPLC analysis; assay type: ADME, cell-free, Bos taurus; settings: cattle, 50 µM, time 50-150 hrs
[22] = Prodrug conversion in human CEM-SS cell extract assessed as S-(O-pivaloyl-2-oxyethyl)O-2',3'-dideoxyadenosin-5'-yl phos-phorothiolate diester sodium salt metabolite formation at 0.00005 M measured at 5 to 15 hrs by HPLC analysis; assay type: ADME, cell-based; settings: 50 µM, time 5-15 hrs

Row | SMILES | CC50 [2] [nM] | pEC50 [3] | pEC50 [4] | CC50 [7] [nM] | CC50 [10] [nM] | pEC50 [11] | also measured
1 | Nc1ncnc2c1ncn2[C@H]1CC[C@@H](COP(=O)(O)O)O1 | – | – | – | – | – | – | Drug metabolism [1]: Metabolite_Detected
2 | Nc1ncnc2c1ncn2[C@H]1CC[C@@H](CO)O1 | > 100000 | 6.31 | 5.11 | > 100000 | – | – | CC50 [5]: 100000 nM; pEC50 [6]: 6.92; CC50 [8]: > 100000 nM; pEC50 [9]: 6.62
3 | Cc1cn([C@H]2CC[C@@H](CO)O2)c(=O)[nH]c1=O | > 100000 | 6.15 | 4.80 | > 100000 | > 100000 | < 4.00 | –
4 | Cc1cn([C@H]2CC[C@@H](COP(=O)(OCCSC(=O)C(C)(C)C)OCCSC(=O)C(C)(C)C)O2)c(=O)[nH]c1=O | > 10000 | 6.66 | 5.60 | > 10000 | > 10000 | 7.30 | –
5 | Cc1cn([C@H]2C=C[C@@H](COP(=O)(SCCOC(=O)C(C)(C)C)SCCOC(=O)C(C)(C)C)O2)c(=O)[nH]c1=O | > 10000 | 7.57 | 7.00 | > 10000 | 8000 | 8.30 | –
6 | Cc1cn([C@H]2CC[C@@H](COP(=O)(SCCOC(=O)C(C)(C)C)SCCOC(=O)C(C)(C)C)O2)c(=O)[nH]c1=O | > 10000 | 7.10 | 6.05 | > 10000 | > 10000 | 7.30 | –
7 | CC(C)(C)C(=O)OCCSP(=O)([O-])OC[C@@H]1CC[C@H](n2cnc3c(N)ncnc32)O1.[Na+] | – | – | – | – | – | – | Drug metabolism [12]: Metabolite_Detected; Stability [13]: Stable; Stability [14]: Stable
8 | CC(C)(C)C(=O)SCCOP(=O)(OCCSC(=O)C(C)(C)C)OC[C@@H]1C=C[C@H](n2cnc3c(N)ncnc32)O1 | 9000 | 7.74 | 6.49 | 5900 | – | – | CC50 [5]: 3600 nM; half-life [15]: 1 h; half-life [16]: 166 h; pEC50 [6]: 9.80; half-life [17]: 432 h; CC50 [8]: 1700 nM; half-life [18]: 302 h; pEC50 [9]: 7.33; Drug metabolism [19]: Metabolite_Detected
9 | CC(C)(C)C(=O)SCCOP(=O)([O-])OC[C@@H]1CC[C@H](n2cnc3c(N)ncnc32)O1.[Na+] | – | – | – | – | – | – | Drug metabolism [20]: Metabolite_Detected; Drug metabolism [12]: Metabolite_Detected; Stability [13]: Stable; Stability [14]: Stable
10 | Cc1cn([C@H]2C=C[C@@H](COP(=O)(OCCSC(=O)C(C)(C)C)OCCSC(=O)C(C)(C)C)O2)c(=O)[nH]c1=O | > 10000 | 7.52 | 6.59 | > 10000 | 4600 | 7.68 | –
11 | CC(C)(C)C(=O)OCCSP(=O)(OC[C@@H]1CC[C@H](n2cnc3c(N)ncnc32)O1)SCCOC(=O)C(C)(C)C | > 1000 | 7.60 | 6.57 | > 10000 | – | – | Drug metabolism [21]: Metabolite_Detected; CC50 [5]: 8600 nM; half-life [15]: 5.3 h; half-life [16]: 38.4 h; Drug metabolism [22]: Metabolite_Detected; pEC50 [6]: 9.64; half-life [17]: 69.6 h; CC50 [8]: > 10000 nM; half-life [18]: 52.8 h; pEC50 [9]: 7.70
12 | Cc1cn([C@H]2C=C[C@@H](CO)O2)c(=O)[nH]c1=O [STAVUDINE] | > 100000 | 7.23 | 6.55 | > 100000 | > 100000 | < 5.00 | –
